In article PMC6829517 (International Journal of Molecular Sciences, 2019):
≈ marks a conversion by molar mass, not a printed value. Entries after “also recorded” stand apart in the source; their conditions may differ. Where two headings read alike, the source gives them in different places. Positions of bridges follow the written chain, without caps; N, C: chain ends. Non-standard residues stand in square brackets, D forms with d. Residues, ends and D or L forms follow the SMILES beside them.

How the values were obtained:
thermolysin [1] = target: T1, thermolysin (Bacillus thermoproteolyticus, UniProt P00800); test: Thermolysin stability assay; format: in vitro ADME; details: thermolysin 1 mg/mL, 50 mM Tris pH 8, 0.5 mM CaCl2, 30 min at 70 °C, LC-MS; loss of 137 Da (Val11-Gly12)
T1 construct: purchased Sigma-Aldrich
T1 sequence (P00800 233-548): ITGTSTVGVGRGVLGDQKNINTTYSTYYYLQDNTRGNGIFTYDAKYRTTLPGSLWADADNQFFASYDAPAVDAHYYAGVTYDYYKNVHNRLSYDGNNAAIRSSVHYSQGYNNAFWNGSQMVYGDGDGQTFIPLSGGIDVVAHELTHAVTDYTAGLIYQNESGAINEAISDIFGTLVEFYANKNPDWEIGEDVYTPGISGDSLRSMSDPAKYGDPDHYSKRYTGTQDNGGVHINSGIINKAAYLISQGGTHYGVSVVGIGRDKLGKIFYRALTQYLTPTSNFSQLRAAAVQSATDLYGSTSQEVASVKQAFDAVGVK
Method: Materials and reagents. Methanol was purchased from Scharlau, while acetonitrile was obtained […]
while carboxypeptidase Y was purchased from Alfa Aesar. E. coli BL21 (DE3), which was used for heterologous expression, was purchased from Invitrogen. Bacterial strains were isolated from […]
Hinton Broth (MHB) was obtained from Scharlau (Spain).
10 µL of 0.5 M NaOH was added.
LC-MS. […] For the isolation and […]
in 400 µL of H 2O-ACN (1:1). […]
was stirred overnight at 40 °C.
MES, 1 mM CaCl 2 at pH 6.75).
The reaction was quenched by
Pepsin. […] 40 µL of pepsin
Figure S6. RP-HPLC chromatograms and ESI + spectra after 30 min of thermolysin treatment at 70 °C in 50 mM TRIS pH 8, 0.5 mM CaCl 2 buffer. a) New compound, b) native MccJ25 and c) co-injection of the two peptides after the thermolysin cleavage. Conditions: XBridge C18 2.5 µm (4.6 mm x 75 mm) reversed-phase analytical column; linear gradient from 30% to 60% of ACN over 8 […]

[2] = system: Escherichia coli MDR 246415; format: cell-based; details: MDR 246415, 24 h
Method: (§1) All experiments were performed in triplicate.

[3] = system: Escherichia coli MDR 39255; format: cell-based; details: MDR 39255, 24 h
Method: as §1

[4] = system: Escherichia coli MDR 239910; format: cell-based; details: MDR 239910, 24 h
Method: as §1

[5] = system: Salmonella typhimurium SY5015; format: cell-based; details: murium SY5015, 24 h
Method: as §1

[6] = system: Escherichia coli MDR 208691; format: cell-based; details: MDR 208691, 24 h
Method: as §1

[7] = system: eight Gram-negative strains; test: MIC, broth microdilution; format: cell-based; details: all eight strains tested; summary of Table 1
Method: as §1

pepsin [8] = target: pepsin (Sus scrofa, UniProt P00791); details: for Hydrolysis by pepsin at 37 °C: pepsin 1 mg/mL in HCl 0.01 M, pH 2, 37 °C, several hours, LC-MS; for Cleavage by pepsin at 50 °C: pH 2, 50 °C, 19 h, RP-HPLC
Sequence of pepsin (Sus scrofa, UniProt P00791) (P00791 60-385): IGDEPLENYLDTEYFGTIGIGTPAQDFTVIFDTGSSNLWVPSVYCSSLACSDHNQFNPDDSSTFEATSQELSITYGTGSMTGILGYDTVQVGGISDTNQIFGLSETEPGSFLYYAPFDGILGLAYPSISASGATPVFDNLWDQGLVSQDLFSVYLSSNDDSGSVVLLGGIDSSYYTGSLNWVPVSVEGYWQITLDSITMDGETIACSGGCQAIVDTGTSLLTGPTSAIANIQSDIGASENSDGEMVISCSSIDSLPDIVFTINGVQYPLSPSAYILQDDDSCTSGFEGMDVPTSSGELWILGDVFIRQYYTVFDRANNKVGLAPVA
Text: Materials and reagents. Methanol was purchased from Scharlau, while acetonitrile was obtained from SDS. NaOH, 2,2,2-trifluoroethanol, pepsin, thermolysin were obtained from Sigma-Aldrich, while carboxypeptidase Y was purchased from Alfa Aesar. E. coli BL21 (DE3), which was used for heterologous expression, was purchased from Invitrogen. Bacterial strains were isolated from clinical specimens in the Microbiology Service of the Hospital Universitari de Bellvitge (Spain).
Collistin sulfate was supplied by Zhejiang Shenghua Biok Biology Co. LTD, China. Mueller-Hinton Broth (MHB) was obtained from Scharlau (Spain). […]
Then, 30 µL of NaOH 0.5 M (pH 12) was added, and the mixture was stirred overnight at 40 °C. […]
Pepsin. Purified peptide (20 µg) was dissolved in 150 µL HCl 0.01 M (pH 2). 40 µL of pepsin solution in HCl 0.01 M (1 mg/mL) was added to the peptide solution and incubated for 2-20 h at […]

Bacterial biofilms = test: Minimal biofilm eradication concentration (MBEC); format: cell-based; details: in all cases; peg-lid biofilms, MHBCA, 24 h exposure at 37 °C, OD 620 nm, triplicate
Method: MBEC was determined as described by Moskowitz et al.. Bacterial biofilms were formed by immersing the pegs of a modified polystyrene microtiter lid into 96-well microtiter plates, each containing 200 µL of Muller-Hinton broth cation adjusted (MHBCA), followed by incubation at 37 °C for 24 h. Pegs were then gently rinsed in a 0.9% w/v NaCl solution and biofilms were exposed to a range of concentrations of antimicrobials for 24 h at 37 °C. Pegs were again rinsed with a 0.9% w/v NaCl solution and biofilms were removed by 10 min sonication. Recovered bacteria were incubated for 24 h at 37 °C. Optical densities at 620 nm were measured in order to determine MBEC values, defined as the lowest concentration of antimicrobial that prevented bacterial regrowth from the treated biofilm. All experiments were performed in triplicate.

[9] = cited from earlier work
Method: (§2) Moreover, it is stable to highly denaturing conditions, such as 8 M urea and temperatures above 100 °C [6].

[10] = system: chymotrypsin, trypsin and pepsin; details: cited from earlier work
Method: as §2

[11] = system: Salmonella enterica ATCC 13076; details: broth microdilution, MHB, 37 °C, 24 h, visual turbidity, triplicate
Method: (§3) MIC values were determined by the broth microdilution method and interpreted following the guidelines of the Clinical & Laboratory Standards Institute (CLSI) and European Committee on Antimicrobial Susceptibility Testing (EUCAST). The different strains were grown in Mueller-Hinton broth (MHB) overnight at 37 °C with shaking at 200 rpm. The bacterial cultures were then adjusted to OD625nm of 0.08–0.1 and diluted 1:100 in fresh MHB medium. Next, 5 µL of each diluted suspension was added to 96-well plates previously filled with MHB and serially diluted peptides. […] All experiments were performed in triplicate.

[12] = system: Salmonella enterica ATCC 49214; details: broth microdilution, MHB, 37 °C, 24 h, visual turbidity, triplicate
Method: as §3

[13] = 0.5 M NaOH in H2O-ACN (1:1); details: 40 °C, up to 48 h
pepsin [14] = test: pepsin, temperature increased to 50 °C; details: up to 19 h
trypsin = details: cited from earlier work
thermolysin [15] = test: thermolysin in 50 mM TRIS pH 8, 0.5 mM CaCl2 buffer; details: 70 °C, up to 30 min
carboxypeptidase Y = carboxypeptidase Y solution in MES buffer (50 mM MES, 1 mM CaCl2 at pH 6.75); details: 25 °C, up to 4 h
pepsin [16] = test: pepsin solution in HCl 0.01 M (pH 2); details: 37 °C, up to 2-20 h
chymotrypsin = details: cited from earlier work
pepsin [17] = details: cited from earlier work

Compound	Outcome of thermolysin treatment (thermolysin [1])	Minimum inhibitory concentration (MIC) [3]	Minimum inhibitory concentration (MIC) [4]	Minimum inhibitory concentration (MIC) [5]	Minimum inhibitory concentration (MIC) [6]	Hydrolysis by pepsin at 37 °C (pepsin [8])	Cleavage by pepsin at 50 °C (pepsin [8])	Minimal biofilm eradication concentration (MBEC) (Bacterial biofilms)	not cleaved (pepsin [14])	cleaved bond (thermolysin [15])	cleaved bond (carboxypeptidase Y)	not cleaved (pepsin [16])	further results
CC[C@H](C)[C@H](NC(=O)CNC(=O)[C@H](NC(=O)[C@H](Cc1ccccc1)NC(=O)[C@H](Cc1ccc(O)cc1)NC(=O)[C@@H]1CCC(=O)NCC(=O)NCC(=O)N[C@@H](C)C(=O)NCC(=O)N[C@@H](Cc2c[nH]cn2)C(=O)N[C@@H](C(C)C)C(=O)N2CCC[C@H]2C(=O)N1)C(C)C)C(=O)NCC(=O)N[C@H](C(=O)N1CCC[C@H]1C(=O)N[C@H](C(=O)N[C@@H](CO)C(=O)N[C@@H](Cc1ccccc1)C(=O)N[C@@H](Cc1ccc(O)cc1)C(=O)NCC(=O)O)[C@@H](C)CC)[C@@H](C)O [New Compound] (GGAGHVPEYF[dV]GIGTPISFYG-OH; lactam N-8)	double cleavage between Phe10-Val11 and Gly12-Ile13	>256 µg/mL	>128 µg/mL	>128 µg/mL	>128 µg/mL	no hydrolysis was observed	no cleavage was detected	greater than 128 μg/mL	–	–	–	–	Minimum inhibitory concentration (MIC) [2]: >128 µg/mL; MIC values in all cases [7]: higher than 128 μg/mL
CC[C@H](C)[C@H](NC(=O)CNC(=O)[C@@H](NC(=O)[C@H](Cc1ccccc1)NC(=O)[C@H](Cc1ccc(O)cc1)NC(=O)[C@@H]1CCC(=O)NCC(=O)NCC(=O)N[C@@H](C)C(=O)NCC(=O)N[C@@H](Cc2cnc[nH]2)C(=O)N[C@@H](C(C)C)C(=O)N2CCC[C@H]2C(=O)N1)C(C)C)C(=O)NCC(=O)N[C@H](C(=O)N1CCC[C@H]1C(=O)N[C@H](C(=O)N[C@@H](CO)C(=O)N[C@@H](Cc1ccccc1)C(=O)N[C@@H](Cc1ccc(O)cc1)C(=O)NCC(=O)O)[C@@H](C)CC)[C@@H](C)O [Native MccJ25, Microcin J25] (GGAGHVPEYFVGIGTPISFYG-OH; lactam N-8)	double cleavage between Phe10-Val11 and Gly12-Ile13	–	–	–	–	no hydrolysis was observed	no cleavage was detected	–	–	–	–	–	Stability to highly denaturing conditions [9]: stable; Thermal and proteolytic stability against several proteases [10]: high thermal and proteolytic stability
CC[C@H](C)[C@H](NC(=O)CNC(=O)[C@@H](NC(=O)[C@H](Cc1ccccc1)NC(=O)[C@H](Cc1ccc(O)cc1)NC(=O)[C@@H]1CCC(=O)NCC(=O)NCC(=O)N[C@@H](C)C(=O)NCC(=O)N[C@@H](Cc2c[nH]cn2)C(=O)N[C@@H](C(C)C)C(=O)N2CCC[C@H]2C(=O)N1)C(C)C)C(=O)NCC(=O)N[C@H](C(=O)N1CCC[C@H]1C(=O)N[C@H](C(=O)N[C@@H](CO)C(=O)N[C@@H](Cc1ccccc1)C(=O)N[C@@H](Cc1ccc(O)cc1)C(=O)NCC(=O)O)[C@@H](C)CC)[C@@H](C)O [Native MccJ25, Microcin J25] (GGAGHVPEYFVGIGTPISFYG-OH; lactam N-8)	–	0.5 µg/mL (≈ 0.237 µM)	>128 µg/mL	>128 µg/mL	>128 µg/mL	–	–	greater than 128 μg/mL	–	–	–	–	Minimum inhibitory concentration (MIC) [11]: <0.0625 µg/mL; Minimum inhibitory concentration (MIC) [12]: 0.8 µg/mL (≈ 0.38 µM)
GGAGHVPEYFVGIGTPISFYG [MccJ25]	–	–	–	–	–	–	–	–	no cleavage was detected after 19 h	Gly12-Ile13; also recorded: Phe10-Val11	Phe10-Val11; also recorded: Val11-Gly12	no hydrolysis was observed, even after several hours at pH 2 at 37 °C	fragment found [13]: new compound (epimerization of Val11); not cleaved (trypsin): high thermal and proteolytic stability; not cleaved (chymotrypsin): high thermal and proteolytic stability; not cleaved (pepsin [17]): high thermal and proteolytic stability
GGAGHVPEYFVGIGTPISFYG [new compound]	–	–	–	–	–	–	–	–	no cleavage was detected after 19 h	Phe10-Val11; also recorded: Gly12-Ile13	Phe10-Val11; also recorded: Val11-Gly12	no hydrolysis was observed, even after several hours at pH 2 at 37 °C	–
